Structures are written as SMILES. Structures can show the parent of a compound that is named as a salt.

The first assay concerns SARS-CoV-2 strain USA-WA1/2020. As to the kind of experiment: microbe, parasite or virus in culture. The following applies: Severe acute respiratory syndrome coronavirus 2, HeLa-ACE2, 24 h, HeLa-ACE2 cells, SARS-CoV-2 infection, 24 h; bound printed in cell; read-out: EC50, uM (Hela). The format is cell-based.
`CC[C@@H](O)C(=O)N[C@@H](CC1(C)CC1)C(=O)N[C@@H](C[C@@H]1CCNC1=O)C(=O)COC(F)(F)F` [Compound 376, (R)-2-hydroxy-N-((S)-3-(1-methylcyclopropyl)-1-oxo-1-(((S)-3-oxo-l-((S)-2-oxopyrrolidin-3-yl)-4-(trifluoromethoxy)butan-2-yl)amino)propan-2-yl)butanamide]: the half-maximal effective concentration (EC50) is over 1 µM.

Still in this assay, the particulars now being: Severe acute respiratory syndrome coronavirus 2, HeLa-ACE2, 24 h, HeLa-ACE2 cells, SARS-CoV-2 infection, 24 h; class symbols; read-out: EC50, uM (Hela).
On to `CC(C)C[C@H](NC(=O)c1ccc2c(c1)OCO2)C(=O)N[C@@H](C[C@@H]1CCNC1=O)C(=O)COC(F)(F)F` [Compound 168, N-((S)-4-methyl-1-oxo-1-(((S)-3-oxo-1-((S)-2-oxopyrrolidin-3-yl)-4-(trifluoromethoxy)butan-2-yl)amino)pentan-2-yl)benzo[d][l,3]dioxole-5-carboxamide], for which the concentration giving a half-maximal response (EC50) was 0.05 to 0.2 µM.

Turning to `CC(C)C[C@H](NC(=O)C(=O)Nc1c(OC(C)C)cccc1OC(C)C)C(=O)N[C@@H](C[C@@H]1CCNC1=O)C(=O)COC(F)(F)F` [Compound 170, Nl-(2,6-diisopropoxyphenyl)-N2-((S)-4-methyl-1-oxo-1-(((S)-3-oxo-1-((S)-2-oxopyrrolidin-3-yl)-4-(trifluoromethoxy)butan-2-yl)amino)pentan-2-yl)oxalamide], the EC50 is under 0.05 µM.

With `CC1(NC(=O)C(=O)N2C[C@@H]3CCC[C@@H]3[C@H]2C(=O)N[C@@H](C[C@@H]2CCNC2=O)C(=O)COC(F)(F)F)CC1` [Compound 270, (1S,3aR,6aS)-2-(2-((l-methylcyclopropyl)-amino)-2-oxoacetyl)-N-((S)-3-oxo-1-((S)-2-oxopyrrolidin-3-yl)-4-(trifluoromethoxy)butan-2-yl)octahydrocyclo-penta[c]pyrrole-1-carboxamide], the concentration for a half-maximal effect (EC50) lay within 0.05 to 0.2 µM.

With `COc1cccc(F)c1NC(=O)C(=O)N[C@@H](CC(C)C)C(=O)N[C@@H](C[C@@H]1CCNC1=O)C(=O)COC(F)(F)F` [Compound 166, N1-(2-fluoro-6-methoxyphenyl)-N2-((S)-4-methyl-1-oxo-1-(((S)-3-oxo-1-((S)-2-oxopyrrolidin-3-yl)-4-(trifluoromethoxy)butan-2-yl)amino)pentan-2-yl)oxalamide], the EC50 was under 0.05 µM.

With `O=C1NCC[C@H]1C[C@H](NC(=O)[C@@H]1[C@H]2CCC[C@H]2CN1C(=O)C1CC2(CC2)CO1)C(=O)COC(F)(F)F` (stereo partly drawn) [Compound 295, (1S,3aR,6aS)-N-((S)-3-oxo-1-((S)-2-oxopyrrolidin-3-yl)-4-(trifluoromethoxy)butan-2-yl)-2-(5-oxaspiro[2.4]heptane-6-carbonyl)octahydro-cyclopenta[c]pyrrole-1-carboxamide], the EC50 is 0.05 to 0.2 µM.

In the case of `COc1ccccc1-c1cnc(C(=O)N[C@@H](CC(C)C)C(=O)N[C@@H](C[C@@H]2CCNC2=O)C(=O)COC(F)(F)F)[nH]1` [Compound 210, 5-(2-methoxyphenyl)-N-((S)-4-methyl-1-oxo-1-(((S)-3-oxo-1-((S)-2-oxopyrrolidin-3-yl)-4-(trifluoromethoxy)butan-2-yl)amino)pentan-2-yl)-1H-imidazole-2-carboxamide], the EC50 was under 0.05 µM.

`COCc1ccccc1NC(=O)C(=O)N[C@@H](CC(C)C)C(=O)N[C@@H](C[C@@H]1CCNC1=O)C(=O)COC(F)(F)F` [Compound 177, N1-(2-(methoxymethyl)phenyl)-N2-((S)-4-methyl-1-oxo-1-(((S)-3-oxo-1-((S)-2-oxopyrrolidin-3-yl)-4-(trifluoromethoxy)butan-2-yl)amino)pentan-2-yl)oxalamide]: the EC50 was under 0.05 µM.

For `Cc1cc(C(=O)N[C@H](C(=O)N[C@@H](CC(C)C)C(=O)N[C@@H](C[C@@H]2CCNC2=O)C(=O)COc2c(F)c(F)cc(F)c2F)C(C)(C)C)no1` [Compound 118, N-((S)-3,3-dimethyl-1-(((S)-4-methyl-1-oxo-1-(((S)-3-oxo-1-((S)-2-oxopyrrolidin-3-yl)-4-(2,3,5,6-tetrafluorophenoxy)butan-2-yl)amino)pentan-2-yl)amino)-1-oxobutan-2-yl)-5-methylisoxazole-3-carboxamide], the concentration for a half-maximal effect (EC50) lay in the range of 0.2 to 0.5 µM.

Consider `CC[C@@H](O)C(=O)N1C[C@@H]2CCC[C@@H]2[C@H]1C(=O)N[C@@H](C[C@@H]1CCNC1=O)C(=O)COC(F)(F)F` [Compound 377, (1S,3aR,6aS)-2-((R)-2-hydroxybutanoyl)-N-((S)-3-oxo-1-((S)-2-oxopyrrolidin-3-yl)-4-(trifluoromethoxy)butan-2-yl)octahydrocyclo-penta[c]pyrrole-1-carboxamide], for which the concentration for a half-maximal effect (EC50) was in the range of 0.05 to 0.2 µM.

As to `O=C1NCC[C@H]1C[C@H](NC(=O)[C@@H]1CC2(CC2)CN1C(=O)[C@H](O)CF)C(=O)COC(F)(F)F` [Compound 397, (S)-5-((S)-3-fluoro-2-hydroxypropanoyl)-N-((S)-3-oxo-1-((S)-2-oxopyrrolidin-3-yl)-4-(trifluoromethoxy)butan-2-yl)-5-azaspiro[2.4]heptane-6-carboxamide], the 50% effective concentration (EC50) lay in the range of 0.05 to 0.2 µM.

In the case of `CC(C)C[C@H](NC(=O)C(=O)Nc1ccccc1C(F)(F)F)C(=O)N[C@@H](C[C@@H]1CCNC1=O)C(=O)COc1c(F)c(F)cc(F)c1F` [Compound 32], the EC50 is under 0.05 µM.

Still in this assay, the particulars now being: Severe acute respiratory syndrome coronavirus 2, HeLa-ACE2, 24 h, HeLa-ACE2 cells, SARS-CoV-2 infection, 24 h; read-out: EC50, uM (Hela).
On to `CCC(OC)C(=O)N1CC2(CC2)C[C@H]1C(=O)N[C@@H](C[C@@H]1CCNC1=O)C(=O)COC(F)(F)F` (stereo partly drawn) [Compound 758, (6S)-5-(2-methoxybutanoyl)-N-((S)-3-oxo-1-((S)-2-oxopyrrolidin-3-yl)-4-(trifluoromethoxy)butan-2-yl)-5-azaspiro[2.4]heptane-6-carboxamide], for which the EC50 fell in the range of 0.2 to 0.5 µM.

Take `CC(C)(C)C[C@H](NC(=O)c1cnc(C(F)(F)F)s1)C(=O)N[C@@H](C[C@@H]1CCNC1=O)C(=O)COC(F)(F)F` [Compound 538, N-((S)-4,4-dimethyl-1-oxo-1-(((S)-3-oxo-1-((S)-2-oxopyrrolidin-3-yl)-4-(trifluoromethoxy)butan-2-yl)amino)pentan-2-yl)-2-(trifluoromethyl)-thiazole-5-carboxamide]: the concentration for a half-maximal effect (EC50) was under 0.05 µM.

Regarding `CCCCC(=O)N1CC2(CC2)C[C@H]1C(=O)N[C@@H](C[C@@H]1CCNC1=O)C(=O)COC(F)(F)F` [Compound 618, (S)-N-((S)-3-oxo-1-((S)-2-oxopyrrolidin-3-yl)-4-(trifluoromethoxy)butan-2-yl)-5-pentanoyl-5-azaspiro[2.4]heptane-6-carboxamide], the concentration giving a half-maximal response (EC50) was 0.05 to 0.2 µM.

Regarding `COC1(C(=O)N2CC3(CC3)C[C@H]2C(=O)N[C@@H](C[C@@H]2CCNC2=O)C(=O)COC(F)(F)F)CCC(F)(F)CC1` [Compound 646, (S)-5-(4,4-difluoro-1-methoxycyclohexane-1-carbonyl)-N-((S)-3-oxo-1-((S)-2-oxopyrrolidin-3-yl)-4-(trifluoromethoxy)butan-2-yl)-5-azaspiro[2.4]heptane-6-carboxamide], the EC50 was under 0.05 µM.

As to `CC(C)(NC(=O)C(=O)N1C[C@@H]2CCC[C@@H]2[C@H]1C(=O)N[C@@H](C[C@@H]1CCNC1=O)C(=O)COC(F)(F)F)C(F)F` [Compound 554, (1S,3aR,6aS)-2-(2-((1,1-difluoro-2-methylpropan-2-yl)amino)-2-oxoacetyl)-N-((S)-3-oxo-1-((S)-2-oxopyrrolidin-3-yl)-4-(trifluoromethoxy)butan-2-yl)octahydro-cyclopenta[c]pyrrole-1-carboxamide], the EC50 is 0.05 to 0.2 µM.

Regarding `O=C1NCC[C@H]1C[C@H](NC(=O)[C@@H]1C[C@@H](C(F)(F)F)CN1C(=O)[C@@H](O)c1ccccc1)C(=O)COC(F)(F)F` [Compound 785, (2S,4R)-1-((S)-2-hydroxy-2-phenylacetyl)-N-((S)-3-oxo-1-((S)-2-oxopyrrolidin-3-yl)-4-(trifluoromethoxy)butan-2-yl)-4-(trifluoromethyl)pyrrolidine-2-carboxamide], the concentration for a half-maximal effect (EC50) is 0.05 to 0.2 µM.

Take `[2H]C([2H])([2H])C([2H])([2H])C([2H])([2H])C(=O)N1CC2(CC2)C[C@H]1C(=O)N[C@@H](C[C@@H]1CCNC1=O)C(=O)COC(F)(F)F` [Compound 736, (S)-5-(butanoyl-d7)-N-((S)-3-oxo-1-((S)-2-oxopyrrolidin-3-yl)-4-(trifluoromethoxy)butan-2-yl)-5-azaspiro[2.4]heptane-6-carboxamide]: the EC50 was under 0.05 µM.

As to `O=C(Nc1ccccc1C(F)(F)F)C(=O)N1CC2(CC2)C[C@H]1C(=O)N[C@@H](C[C@@H]1CCNC1=O)C(=O)COC(F)(F)F` [Compound 576, (S)-N-((S)-3-oxo-1-((S)-2-oxopyrrolidin-3-yl)-4-(trifluoromethoxy)butan-2-yl)-5-(2-oxo-2-((2-(trifluoromethyl)-phenyl)amino)acetyl)-5-azaspiro[2.4]-heptane-6-carboxamide], the EC50 was under 0.05 µM.

In the case of `O=C1NCC[C@H]1C[C@H](NC(=O)[C@@H]1[C@H]2CCC[C@H]2CN1C(=O)[C@H](O)c1ccc(F)cc1)C(=O)COC(F)(F)F` [Compound 404, (1S,3aR,6aS)-2-((R)-2-(4-fluorophenyl)-2-hydroxyacetyl)-N-((S)-3-oxo-1-((S)-2-oxopyrrolidin-3-yl)-4-(trifluoromethoxy)butan-2-yl)octahydrocyclo-penta[c]pyrrole-1-carboxamide], the EC50 is under 0.05 µM.

The same assay, now with this note: Severe acute respiratory syndrome coronavirus 2, HeLa-ACE2, 24 h; read-out: EC50, uM (Hela).
Take `CC(C)C[C@H](NC(=O)C(=O)Nc1ccccc1F)C(=O)N[C@@H](CCCCN)C(=O)COc1c(F)c(F)cc(F)c1F` [Compound 142, N^1—((S)-1-(((S)-7-amino-2-oxo-1-(2,3,5,6-tetrafluorophenoxy)heptan-3-yl)amino)-4-methyl-1-oxopentan-2-yl)-N^2-(2-fluorophenyl)oxalamide hydrochloride]: the EC50 is under 0.05 µM.

In the case of `COc1cccc2[nH]c(C(=O)N[C@@H](CC(C)C)C(=O)N[C@@H](CC3CCNC3=O)C(=O)COP(=O)(c3ccccc3)c3ccccc3)cc12` (stereo partly drawn) [Compound 195, (3S)-3-((S)-2-(4-methoxy-1H-indole-2-carboxamido)-4-methylpentanamido)-2-oxo-4-(2-oxopyrrolidin-3-yl)butyl diphenylphosphinate], the 50% effective concentration (EC50) was in the range of 0.05 to 0.2 µM.

These data come from patent US11708348B2, “Protease inhibitors for treatment of coronavirus infections” (The Scripps Research Institute, priority 2021, dated 2023).
